Data on five molecules can be found in patent publication US9211313B2, “Methods and compound to inhibit Ca2+ permeable cation conductance” (priority 2011, dated 2015).

What is called inhibition is the share of the control response that was lost under treatment. A high value points to a response far below the control.

Holding throughout (type): cell-based
Experiment [1] concerns deoxygenation-activated cation conductance in human SS red cells. The experiment in a line: On-cell patch clamp of deoxygenation-activated cation conductance, symmetric Na methanesulfonate. As for the experimental part: (§1) Blood cell preparation: Human SS and AA blood was obtained under IRB-approved protocols of Children's Hospital and Beth Israel Deaconess Medical Center. After buffy coat removal and 5 washes in standard human red cell wash solution containing (in mM) 150 choline Cl, 1 MgCl, and 10 Tris-MOPS, pH 7.4, red cells were resuspended in storage solution containing (in mM) 145 KCl, 15 NaCl, and 10 HEPES, pH 7.4, then kept at 4° C. until used. Human red cells allowed to settle on coverslips were mounted on an inverted microscope in a 200 μl open chamber (WPI, Sarasota, Fla.) and superfused 15 min at room temperature by bath solution containing (in mM) 150 Na methanesulfonate, 10 Na EDTA, and 10 Na HEPES, pH 7.4.
Mouse red cells allowed to settle on coverslips were superfused 15 min with bath solution containing (in mM) either 150 mM Na methanesulfonate, 10 Na EDTA, and 10 Na HEPES, pH 7.4; or 140 NaCl, 4 KCl, 1CaCl2, 1 MgCl2, 10 Na HEPES, pH 7.4. Deoxygenation was achieved by switching superfusate to the same solution gassed ≧30 min prior to the experiment with 100% N2, and by flushing of the perfusion chamber with N2 during the deoxygenation period. The resulting bath pO2 was 18 mm Hg as measured by oxygen electrode (WPI). In the experiments of FIG. 1, deoxygenated cells were subsequently re-oxygenated by exposure to the same superfusate equilibrated with room air.
(§2) Washed human or mouse red cells in solution containing (in mM) 140 NaCl, 5 KCl, 1 CaCl2, 1 MgCl2, 10 Na HEPES, pH 7.4 were exposed for 1 hr on a rotary platform in a 37° C. incubator to 25 ppm carbon monoxide (CO) in 5% CO2. CO-exposed cells were then subjected to patch clamp or to calcium imaging experiments within 60 min after return to room air, using the solutions indicated.
(§3) On-cell patch clamp: Borosilicate pipettes (Corning 7052) pulled with a Narishige two stage puller or a Sutter P97 puller and fire-polished to resistances of 10-20 MΩ were front-filled and then backfilled. Symmetric bath and pipette solutions for studies of seal resistance stability during reversibility tests of the deoxygenation-activated conductance in SAD mouse red cells were (in mM) 140 NaCl, 4 KCl, 1 CaCl2, 1 MgCl2, 10 Na HEPES, pH 7.4. These conditions yielded tight seals in 13% of patch attempts on SAD cells. For study of deoxygenation-induced monovalent cation permeation in the absence of bath Ca^2+ and Mg^2+ recorded in SAD and Berkeley mouse cells and in human cells, symmetric bath and pipette solutions contained (in mM) 150 Na methanesulfonate, 10 Na EDTA, and 10 Na HEPES, pH 7.4. These conditions yielded tight seals in 16% of patch attempts on SAD mouse red cells, 26% of attempts on Berkeley mouse cells, and 30% of attempts on human SS cells. For study of Ca^2+ permeation in human SS cells, bath and pipette solutions contained (in mM) 100 CaCl2, 10 Na HEPES, pH 7.4. These conditions yielded tights seals on 44% of attempts. For all conditions tested in human red cells, 70% of tight seals were sustained through the solution change accompanying deoxygenation to allow recording of current activity.
(§4) On-cell patch currents were recorded with the Axopatch 1-D amplifier (Axon Instruments/Molecular Devices, Sunnyvale, Calif.). Holding potential was −Vp=−50 mV (expressed as the negative of the pipette potential (e.g., equivalent to the intracellular potential with respect to the pipette). To determine current-voltage relationships (I-V curves) in Fetchex or Clampex (PCLAMP, Axon Instruments), the realtime control window in gap-free mode was used to record current traces of 10-30 sec duration at holding potentials ranging from −100 to +100 mV, in 25 mV increments. The bath reference electrode was a silver chloride wire with a 3 M KCl agar bridge. Data was filtered at 500 Hz, digitized at 2 kHz by Clampex, and analyzed offline by Fetchan and Pstat or by Clampfit subroutines of PCLAMP. Holding potentials in on-cell patch experiments were expressed as −Vp, the negative of the pipette potential.
For orientation: In patch-clamp work, channel activity is measured electrically.

A further experiment deals with human SS red cells. Nature of the experiment: Fluo-3 fluorescence measurement of [Ca2+]i during deoxygenation, human SS cells. The following applies: CO preincubation, no continued CO exposure. The protocol:
as §1, §2
(§5) Fluorescence measurements of cytosolic [Ca^2+] ([Ca^2+]i): After removal of plasma and buffy coat by aspiration, human or mouse red cells were washed three times at room temperature and suspended in modified Hank's solution containing (in mM), 137 NaCl, 5.4 KCl, 1 CaCl2, 1 MgCl2, 0.8 NaK phosphate, 5.6 glucose, and 10 Na HEPES, pH 7.4. Dilute cell suspensions were settled on polylysine-coated coverslips forming the bottom of an open perfusion chamber (2.5 cm diameter, 1 cm depth) and washed again 3 times.
Measurement of relative changes in [Ca^2+]i by Fluo-3 fluorescence emission was previously validated in intact human (Yang et al. 2000, Blood, 95(7):2421-2425; Andrews et al. 2002, Blood, 199(9):3392-3399) and mouse red cells (Akel et al. 2007, Amer. J. Physiol., 292(5):C1759-1767). […] Fluorescence emission (proportional to [Ca^2+]i) from a 535ds20 bandpass filter was collected from all attached single cells within the arbitrarily selected visual field. […]
(§6) Fluo-3 fluorescence from attached cells on each coverslip was recorded 60 sec in room air and then for 10 min after onset of perfusion chamber flushing with humidified 100% N2. The normalized increase in Fluo-3 fluorescence in SS cells subjected to this deoxygenation procedure was indistinguishable from that observed during superfusion of cells in a closed perfusion chamber via syringe pump with bath previously bubbled for 60 min with 100% N2 (n=62 cells from 2 SS patients, not shown). The y-axis value of 0% change in Fluo-3 fluorescence intensity represented mean intensity recorded from all cells within the coverslip visual field during the 60 sec prior to deoxygenation.

Experiment [2] has as its system LPA-induced cation conductance in human SS red cells. Nature of the experiment: On-cell patch clamp of LPA-induced cation conductance.
Source text: as §3, §4
Deoxygenation-activated flickering cation conductance observed in human SS cells contrasted with the prolonged channel openings produced by 5 μM LPA (FIG. 10A). In SS cells, LPA increased NPo […], from 0.04±0.03 to 0.82±0.18 (n=8, p<0.001; Na methanesulfonate in bath and pipette, −Vp=−50 mV; FIG. 10B). LPA-induced cation conductance was 96% inhibited by 100 uM dipyridamole in the pipette, and 97% inhibited by 1 μM GsMTx-4 in the pipette (both n=4).

Experiment [3] concerns SAD sickle mouse red cells. The experiment in a line: Fluo-3 fluorescence measurement of [Ca2+]i during deoxygenation, SAD cells. The protocol:
Blood was withdrawn by cardiac puncture or from the tail vein of C57B16/J wildtype mice, SAD sickle mice, or Berkeley sickle mice into heparinized syringes by IACUC-approved protocols of Beth Israel Deaconess Medical Center. Buffy coat-depleted cells were washed 5 times in standard mouse red cell wash solution containing (in mM) 172 choline Cl, 10 sucrose, 10 Na Tris-MOPS, pH 7.4, resuspended in storage solution, and kept at 4° C. until use.
as §5
Measurement of relative changes in [Ca^2+]i by Fluo-3 fluorescence emission was previously validated in intact human (Yang et al. 2000, Blood, 95(7):2421-2425; Andrews et al. 2002, Blood, 199(9):3392-3399) and mouse red cells (Akel et al. 2007, Amer. J. Physiol., 292(5):C1759-1767). Attached red cells were loaded in the dark with the fluorescent non-ratiometric Ca^2+ indicator Fluo-3-AM (10 μM, Molecular Probes, Eugene, Oreg.) at 37° C. for 1 hr, then washed and incubated 15 min further to allow de-esterification of intracellular dye. The open perfusion chamber containing dye-loaded cells was mounted on an Olympus IMT-2 inverted epifluorescence microscope equipped with CoolSNAP CCD camera (Photometrics, Tucson, Ariz.). Fluo-3 in cells imaged through a 60× objective was excited by mercury-xenon illumination passed through a 495ds20 filter. Fluorescence emission (proportional to [Ca^2+]i) from a 535ds20 bandpass filter was collected from all attached single cells within the arbitrarily selected visual field. Emission image acquisition was controlled by a Metafluor digital imaging system (Universal Imaging, West Chester, Pa.).
as §6

The target of the next experiment is T1, KCa3.1 (Homo sapiens, UniProt O15554).
T1 construct: KCa3.1 activity stimulated in intact human AA cells by 1 μM A23187; endogenous in cells; host or cells: intact human AA red blood cells

Entries after “also recorded” stand apart in the source; their conditions may differ.

T1 sequence (O15554 whole entry): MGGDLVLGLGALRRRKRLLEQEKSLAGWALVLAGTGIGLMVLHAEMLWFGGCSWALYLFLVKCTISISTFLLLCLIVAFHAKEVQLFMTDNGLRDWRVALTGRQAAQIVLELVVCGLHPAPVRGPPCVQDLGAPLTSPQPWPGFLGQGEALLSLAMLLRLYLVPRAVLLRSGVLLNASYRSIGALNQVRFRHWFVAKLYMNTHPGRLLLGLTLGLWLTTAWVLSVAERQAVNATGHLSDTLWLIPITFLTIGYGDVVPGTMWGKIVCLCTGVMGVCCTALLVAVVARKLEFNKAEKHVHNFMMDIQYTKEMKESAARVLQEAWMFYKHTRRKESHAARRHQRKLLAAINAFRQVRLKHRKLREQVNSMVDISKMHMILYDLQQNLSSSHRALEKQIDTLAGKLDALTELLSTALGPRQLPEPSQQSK

`[C-]#[O+]` [CO, carbon monoxide]: in experiment [1] (CO-pretreated cells, n=4), the NPo upon deoxygenation is 0.0625±0.0375 and the “Normoxic NPo” value amounted to 0.0377±0.0375. For the same molecule, in experiment [1] (prior CO exposure of SS cells), the “effect on activation of conductance upon deoxygenation” value is recorded as “prevented”. Also, the “effect on [Ca2+]i elevation by deoxygenation” value in the experiment on human SS red cells was “blocked; also recorded: inhibited”.
Turning to `OCCN(CCO)c1nc(N2CCCCC2)c2nc(N(CCO)CCO)nc(N3CCCCC3)c2n1` [dipyridamole], the “effect on deoxygenation-induced activation of cation conductance” value in experiment [1] (100 μM in the pipette) is “prevented”. Further, in experiment [1] (100 μM in the pipette, n=4), the “NPo after deoxygenation (hypoxic)” value was determined as 0.004±0.002 and the “Normoxic NPo” value was found to be 0.00. Further, the “effect on LPA-induced increase in NPo” value in experiment [2] (100 μM in the pipette) is “prevented”. In experiment [2] (Homo sapiens, 100 uM in the pipette, 5 μM LPA, n=4), this molecule displayed an inhibition at 100 µM of 96%.
Consider `[Na+].[Na+].[Na+].[O]=[V]([O-])([O-])[O-]` [vanadate, Na vanadate], for which the “effect on deoxygenation-induced [Ca2+]i elevation” value in experiment [3] (50 μM in bath, acute deoxygenation) is “enhanced; also recorded: further elevated”. Moreover, in experiment [3] (50 μM, continued presence), the “time to plateau [Ca2+]i after deoxygenation” value is < 2 min. The “[Ca2+]i-dependent Fluo-3 emission increase” value in experiment [3] (50 μM, 5 min normoxic preincubation of SAD cells) stood at 12.8±1.8%. In addition, in experiment [3] (50 μM, after ~4 min longer at plateau), the “late [Ca2+]i relative to plateau” value is “twice the previous plateau value”.
Turning to `O=S(=O)(O)c1cc(N=C=S)ccc1C=Cc1ccc(N=C=S)cc1S(=O)(=O)O` [DIDS, 4,4′-diisothiocyanatostilbene-2,2′-disulfonic acid], the “effect on deoxygenation-induced activation of cation conductance” value in experiment [1] (100 μM in the pipette) is “prevented; also recorded: blocked”. Moreover, in experiment [1] (100 μM in the pipette, n=4), the “NPo after deoxygenation (hypoxic)” value is 0.001±0.001 and the “Normoxic NPo” value was found to be 0.002±0.002.
For the molecule `Clc1ccccc1C(c1ccccc1)(c1ccccc1)n1ccnc1` [clotrimazole, reference compound], at KCa3.1, the “effect on A23187-stimulated cell shrinkage” value was “completely inhibited”.
